pIC50: −log10 of the molar value.
Key:
[1] = target: HA H5 A/Vietnam/1203/04 (Influenza A virus (A/Vietnam/1203/2004(H5N1)), UniProt Q5EP31); test: biochemical; conditions: Competition binding (AlphaLISA), pIC50 H5 A/Vietnam/1203/04
H5N1 A/Vietnam/1203/04 = test: microbe, parasite or virus in culture; assay type: cell-based, influenza A virus; conditions: 96 h, average of repeats; for EC50: Influenza A virus, H5N1, MDCK, read-out: Virus neutralization assay (VNA), pEC50 H5N1 A/Vietnam/1203/04, MDCK cells, 96 h, CPE by ATPlite (converted); for Virus neutralization assay (VNA), pEC50 H5N1 A/Vietnam/1203/04: MDCK cells, CPE by ATPlite
H1N1 A/California/07/09 = test: microbe, parasite or virus in culture; assay type: cell-based, influenza A virus; conditions: for EC50: Influenza A virus, H1N1, MDCK, 96 h, read-out: Virus neutralization assay (VNA), pEC50 H1N1 A/California/07/09 (converted)
[2] = tested on: H1N1 A/New Caledonia/20/99; test: microbe, parasite or virus in culture; assay type: cell-based, influenza A virus; conditions: for EC50: Influenza A virus, H1N1, MDCK, 96 h, read-out: Virus neutralization assay (VNA), pEC50 H1N1 A/New Caledonia/20/99 (converted)
MDCK cells = conditions: dog
[3] = target: HA H1 A/California/07/09 (Influenza A virus (A/California/07/2009(H1N1)), UniProt C3W5X2); test: biochemical; conditions: Competition binding (AlphaLISA), pIC50 H1 A/California/07/09
[4] = target: HA H1 A/New Caledonia/20/99 (Influenza A virus (A/New Caledonia/20/1999(H1N1)), UniProt Q6WG00); test: biochemical; conditions: Competition binding (AlphaLISA), pIC50 H1 A/New Caledonia/20/99
in vitro = conditions: dog, Cytotoxicity (pCC50) MDCK
H1N1 A/PR/8/34-MA = test: microbe, parasite or virus in culture; assay type: cell-based, influenza A virus; conditions: for EC50: Influenza A virus, MDCK, 96 h, read-out: Virus neutralization assay (VNA), pEC50 H1N1 A/PR/8/34-MA (converted)

Structure (SMILES)	pIC50 [1]	EC50 (H5N1 A/Vietnam/1203/04) [nM]	EC50 (H1N1 A/California/07/09) [nM]	EC50 [2] [nM]	Cytotoxicity (pCC50) MDCK (MDCK cells)	pIC50 [3]	pIC50 [4]	CC50 (in vitro) [nM]	EC50 (H1N1 A/PR/8/34-MA) [nM]	Virus neutralization assay (VNA), pEC50 H1N1 A/New Caledonia/20/99 [2]	Virus neutralization assay (VNA), pEC50 H1N1 A/PR/8/34-MA (H1N1 A/PR/8/34-MA)	Virus neutralization assay (VNA), pEC50 H5N1 A/Vietnam/1203/04 (H5N1 A/Vietnam/1203/04)	Virus neutralization assay (VNA), pEC50 H1N1 A/California/07/09 (H1N1 A/California/07/09)
COc1ccc2nc(-c3cccc(C(=O)N4CCN(C(C(C)=O)c5ccccc5)CC4)c3)sc2c1 (stereo not drawn) [Example 106]	5.70	> 50100	3160	1000	4.4	6.40	6.70						
Cc1nnc([C@@H](c2ccccc2)N2CCN(C(=O)c3cccc(-c4nc5cc(C(F)(F)F)ccc5o4)c3)CC2)o1 [Example 27]	5.90	39800	316	316	<4.3	7.50	7.30						
COC(=O)C(c1ccccc1)N1CCN(C(=O)c2cccc(-c3nc4ccc(OC)cc4s3)c2)CC1 (stereo not drawn) [Example 29]	6.60	3980	251	158		7.60	7.80	39800	126				
CCOC(=O)C(c1ccccc1)N1CCN(C(=O)c2cccc(-c3ccc(OC)cc3)c2)CC1 (stereo not drawn) [Example 120]	5.60	> 50100	1260	1580		6.60	6.60	> 50100	1000				
O=C(c1cccc(-c2cc3ccccc3o2)c1)N1CCN(Cc2ccccc2)CC1 [Example 85]	5.50	12600	2510	631		6.20	6.50	10000	501				
COC(=O)C(c1ccccc1)N1CCN(C(=O)c2cccc(-c3ccc(OC)cc3)c2)CC1 (stereo not drawn) [Example 128]	5.50	10000	3160		<4.3	6.60	6.80			5.7			
COC(=O)[C@@H](c1ccccc1)N1CCN(C(=O)c2cccc(-c3nc4ccc(OC)cc4s3)c2)CC1 [Example 22]					<4.3	7.80	7.90			6.9	6.9	5.8	6.8
COC(=O)[C@@H](c1ccccc1)N1CCN(C(=O)c2cccc(-c3nc4ccc(OC)cc4s3)c2)CC1 [Example 19]	6.70	1580	251	100		7.70	7.80	> 50100	126				
Cc1nnc([C@@H](c2ccccc2)N2CCN(C(=O)c3cccc(-c4nc5cc(C(F)(F)F)ccc5o4)c3)CC2)o1 [Example 69]	5.60				5.0	7.20	7.10			6.2		4.5	6.4
COC(=O)C(c1ccccc1)C1CCN(C(=O)c2cccc(-c3ccc(OC)cc3)c2)CC1 (stereo not drawn) [Example 130]	5.00	39800	15800	2000		6.00	6.20	39800	12600				
